# Results: patent EP4603105A1, “PHARMACEUTICAL COMPOSITION CONTAINING CYCLIC COMPOUND HAVING SELECTIVE KRAS INHIBITORY EFFECT AGAINST HRAS AND NRAS” (CHUGAI SEIYAKU KABUSHIKI KAISHA, priority 2022, dated 2024)
# Columns and labels:
# [1] = tested on: human lung cancer strain NCI-H441; format: cell-based
# Method in brief: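 Readout: […] after the ATP-based reagent. Compound: serial dilutions in dimethyl sulfoxide.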
# [2] = target: HRAS wild-type protein (Homo sapiens, UniProt P01112); assay: Binding to HRAS by surface plasmon resonance (SPR), KD and KD ratio to KRAS; conditions: ratio of KD value for HRAS wild-type protein to KD value for KRAS (SPR)
# HRAS wild-type protein, sequence (P01112 whole entry): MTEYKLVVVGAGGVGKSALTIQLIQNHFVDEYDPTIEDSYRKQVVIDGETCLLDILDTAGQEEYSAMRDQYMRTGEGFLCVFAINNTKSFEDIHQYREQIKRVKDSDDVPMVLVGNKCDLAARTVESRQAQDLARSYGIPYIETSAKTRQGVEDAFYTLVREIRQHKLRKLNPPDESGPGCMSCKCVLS
# Method in brief: (§1)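 GDP-loaded biotinylated Avi-tag RAS proteins (E. coli-expressed) captured on a Biotin CAPture chip at ~100–300 RU; single-cycle kinetics at 30°C, 100 µL/min, 75 s injections of rising compound concentrations. HBS pH 7.4 running buffer with 1 mM DTT, 10 mM MgCl2, 10 µM GDP, 4% DMSO. KD from 1:1 binding fit.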
# [3] = target: GDP-bound NRAS wild-type protein (Homo sapiens, UniProt P01111); assay: Binding to NRAS by surface plasmon resonance (SPR), KD and KD ratio to KRAS; conditions: ratio of KD value for GDP-bound NRAS wild-type protein to KD value for KRAS (SPR)
# GDP-bound NRAS wild-type protein, sequence (P01111 whole entry): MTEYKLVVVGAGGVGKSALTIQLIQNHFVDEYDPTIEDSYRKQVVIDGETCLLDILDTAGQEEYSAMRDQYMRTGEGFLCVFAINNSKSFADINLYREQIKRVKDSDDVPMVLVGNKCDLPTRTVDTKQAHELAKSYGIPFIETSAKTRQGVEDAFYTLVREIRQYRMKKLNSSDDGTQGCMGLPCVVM
# Method in brief: as §1
Compound,IC50 [1],HRAS /KRAS [2],NRAS /KRAS [3]
CCO[C@@H]1C[C@H]2C(=O)NC3(CC(C)(C)C3)C(=O)N(C)[C@@H](C3CCCC3)C(=O)N(C)[C@H](C(=O)N(C)C)CC(=O)N(C)[C@H]3CCCC/C=C/c4ccc(cc4)C[C@@H](C(=O)N(C)CC(=O)N[C@@H](CCc4cc(F)c(C(F)(F)F)c(F)c4)C(=O)N2C1)N1CC/C=C\C[C@@H](C1=O)N(C)C(=O)CN(C)C(=O)[C@H]([C@@H](C)CC)NC3=O [PP1831],0.003 µM,A (a compound having 10 or more and less than 20 is denoted as A),A (a compound having 10 or more and less than 20 is denoted as A)
CCO[C@@H]1C[C@H]2C(=O)NC3(CC(C)(C)C3)C(=O)N(C)[C@@H](C3CCCC3)C(=O)N(C)[C@H](C(=O)N(C)C)CC(=O)N(C)[C@H]3CCCC/C=C/c4ccc(cc4)C[C@@H](C(=O)N(C)CC(=O)N[C@@H](CCc4ccc(C(F)(F)F)c(OC)c4)C(=O)N2C1)N1CC/C=C\C[C@@H](C1=O)N(C)C(=O)CN(C)C(=O)[C@H]([C@@H](C)CC)NC3=O [PP1832],0.0025 µM,B (a compound having 3 or more and less than 10 is denoted as B),B (a compound having 3 or more and less than 10 is denoted as B)
CCO[C@@H]1C[C@H]2C(=O)NC3(CCC3)C(=O)N(C)[C@@H](C3CCCC3)C(=O)N(C)[C@H](C(=O)N(C)CC)CC(=O)N(C)[C@H]3CCC/C=C/c4ccc(cc4)C[C@@H](C(=O)N(C)CC(=O)N[C@@H](CCc4ccc(C(F)(F)F)c(OC)c4)C(=O)N2C1)N1CC/C=C\C[C@@H](C1=O)N(C)C(=O)CN(C)C(=O)[C@H]([C@@H](C)CC)NC3=O [PP1834],0.0021 µM,B (a compound having 3 or more and less than 10 is denoted as B),A (a compound having 10 or more and less than 20 is denoted as A)
CCO[C@@H]1C[C@H]2C(=O)NC3(CC(C)(C)C3)C(=O)N(C)[C@@H](C3CCCC3)C(=O)N(C)[C@H](C(=O)N(C)CC)CC(=O)N(C)[C@H]3CCC/C=C/c4ccc(cc4)C[C@@H](C(=O)N(C)CC(=O)N[C@@H](CCc4cc(F)c(C(F)(F)F)c(F)c4)C(=O)N2C1)N1CC/C=C\C[C@@H](C1=O)N(C)C(=O)CN(C)C(=O)[C@H]([C@@H](C)CC)NC3=O [PP1835],0.0049 µM,B (a compound having 3 or more and less than 10 is denoted as B),A (a compound having 10 or more and less than 20 is denoted as A)
CC[C@H](C)[C@@H]1NC(=O)[C@H](CC)N(C)C(=O)C[C@@H](C(=O)N(C)C)N(C)C(=O)[C@H](C2CCCC2)N(C)C(=O)C2(CC(C)(C)C2)NC(=O)[C@@H]2C[C@H](C)CN2C(=O)[C@H](CCc2ccc(C(F)(F)F)c(OC)c2)NC(=O)CN(C)C(=O)[C@H](Cc2ccc(C)cc2)N2CC/C=C\C[C@@H](C2=O)N(C)C(=O)CN(C)C1=O [PP1836],0.0107 µM,B (a compound having 3 or more and less than 10 is denoted as B),A (a compound having 10 or more and less than 20 is denoted as A)
CC[C@H](C)[C@@H]1NC(=O)[C@H](CC(F)F)N(C)C(=O)C[C@@H](C(=O)N(C)CC)N(C)C(=O)[C@H](C2CCCC2)N(C)C(=O)C2(CC(C)(C)C2)NC(=O)[C@@H]2C[C@@H](C)CN2C(=O)[C@H](CCc2ccc(C(F)(F)F)c(Cl)c2)NC(=O)CN(C)C(=O)[C@H](Cc2ccc(C)cc2)N2CC/C=C\C[C@@H](C2=O)N(C)C(=O)CN(C)C1=O [PP1837],0.0156 µM,A (a compound having 10 or more and less than 20 is denoted as A),A (a compound having 10 or more and less than 20 is denoted as A)
CC[C@H](C)[C@@H]1NC(=O)[C@H](CC)N(C)C(=O)C[C@@H](C(=O)N(C)C)N(C)C(=O)[C@H](C2CCCC2)N(C)C(=O)C2(CC(C)(C)C2)NC(=O)[C@@H]2C[C@@H](C)CN2C(=O)[C@H](CCc2ccc(C(F)(F)F)c(OC)c2)NC(=O)CN(C)C(=O)[C@H](Cc2ccc(C)cc2)N2CC/C=C\C[C@@H](C2=O)N(C)C(=O)CN(C)C1=O [PP1838],0.02 µM,A (a compound having 10 or more and less than 20 is denoted as A),A (a compound having 10 or more and less than 20 is denoted as A)
CC[C@H](C)[C@@H]1NC(=O)[C@H](CC)N(C)C(=O)C[C@@H](C(=O)N(CC)CC)N(C)C(=O)[C@H](C2CCCC2)N(C)C(=O)C2(CC(C)(C)C2)NC(=O)[C@@H]2C[C@H](C)CN2C(=O)[C@H](CCc2ccc(C(F)(F)F)c(OC)c2)NC(=O)CN(C)C(=O)[C@H](Cc2ccc(C)cc2)N2CC/C=C\C[C@@H](C2=O)N(C)C(=O)CN(C)C1=O [PP1839],0.0243 µM,B (a compound having 3 or more and less than 10 is denoted as B),A (a compound having 10 or more and less than 20 is denoted as A)
CC[C@H](C)[C@@H]1NC(=O)[C@H](CC)N(C)C(=O)C[C@@H](C(=O)N(CC)CC)N(C)C(=O)[C@H](C2CCCC2)N(C)C(=O)C2(CC(C)(C)C2)NC(=O)[C@@H]2C[C@@H](C)CN2C(=O)[C@H](CCc2ccc(C(F)(F)F)c(OC)c2)NC(=O)CN(C)C(=O)[C@H](Cc2ccc(C)cc2)N2CC/C=C\C[C@@H](C2=O)N(C)C(=O)CN(C)C1=O [PP1841],0.0243 µM,A (a compound having 10 or more and less than 20 is denoted as A),AA (a compound having 20 or more is denoted as AA)
CC[C@H](C)[C@@H]1NC(=O)[C@H](CC)N(C)C(=O)C[C@@H](C(=O)N(C)C)N(C)C(=O)[C@H](C2CCCC2)N(C)C(=O)C2(CC(C)(C)C2)NC(=O)[C@@H]2C[C@H](C)CN2C(=O)[C@H](CCc2ccc(C(F)(F)F)c(Cl)c2)NC(=O)CN(C)C(=O)[C@H](Cc2ccc(C)cc2)N2CC/C=C\C[C@@H](C2=O)N(C)C(=O)CN(C)C1=O [PP1844],0.0123 µM,B (a compound having 3 or more and less than 10 is denoted as B),A (a compound having 10 or more and less than 20 is denoted as A)
CC[C@H](C)[C@@H]1NC(=O)[C@H](CC(C)C)N(C)C(=O)C[C@@H](C(=O)N(C)C)N(C)C(=O)[C@H](C2CCCC2)N(C)C(=O)C2(CCC2)NC(=O)[C@@H]2C[C@@H](C)CN2C(=O)[C@H](CCc2ccc(C(F)(F)F)c(Cl)c2)NC(=O)CN(C)C(=O)[C@H](Cc2ccc(C)cc2)N2CC/C=C\C[C@@H](C2=O)N(C)C(=O)CN(C)C1=O [PP1854],0.0052 µM,A (a compound having 10 or more and less than 20 is denoted as A),A (a compound having 10 or more and less than 20 is denoted as A)
CC[C@H](C)[C@@H]1NC(=O)[C@H](CC)N(C)C(=O)C[C@@H](C(=O)N(C)CC)N(C)C(=O)[C@H](C2CCCC2)N(C)C(=O)C2(CCC2)NC(=O)[C@@H]2C[C@@H](C)CN2C(=O)[C@H](CCc2ccc(C(F)(F)F)c(OC)c2)NC(=O)CN(C)C(=O)[C@H](Cc2ccc(C)cc2)N2CC/C=C\C[C@@H](C2=O)N(C)C(=O)CN(C)C1=O [PP1855],0.0177 µM,A (a compound having 10 or more and less than 20 is denoted as A),AA (a compound having 20 or more is denoted as AA)
CC[C@H](C)[C@@H]1NC(=O)[C@H](CC)N(C)C(=O)C[C@@H](C(=O)N(C)C)N(C)C(=O)[C@H](C2CCCC2)N(C)C(=O)C2(CC(C)(C)C2)NC(=O)[C@@H]2C[C@H](C)CN2C(=O)[C@H](CCc2cc(F)c(C(F)(F)F)c(F)c2)NC(=O)CN(C)C(=O)[C@H](Cc2ccc(C)cc2)N2CC/C=C\C[C@@H](C2=O)N(C)C(=O)CN(C)C1=O [PP1856],0.0014 µM,A (a compound having 10 or more and less than 20 is denoted as A),A (a compound having 10 or more and less than 20 is denoted as A)
CC[C@H](C)[C@@H]1NC(=O)[C@H](CC2CC2)N(C)C(=O)C[C@@H](C(=O)N(C)C)N(C)C(=O)[C@H](C2CCCC2)N(C)C(=O)C2(CCC2)NC(=O)[C@@H]2C[C@@H](C)CN2C(=O)[C@H](CCc2ccc(C(F)(F)F)c(OC)c2)NC(=O)CN(C)C(=O)[C@H](Cc2ccc(C)cc2)N2CC/C=C\C[C@@H](C2=O)N(C)C(=O)CN(C)C1=O [PP1863],0.0888 µM,A (a compound having 10 or more and less than 20 is denoted as A),A (a compound having 10 or more and less than 20 is denoted as A)
CC[C@H](C)[C@@H]1NC(=O)[C@H](CC(C)C)N(C)C(=O)C[C@@H](C(=O)N(C)C)N(C)C(=O)[C@H](C2CCCC2)N(C)C(=O)C2(CCC2)NC(=O)[C@@H]2C[C@H](C)CN2C(=O)[C@H](CCc2cc(F)c(C(F)(F)F)c(F)c2)NC(=O)CN(C)C(=O)[C@H](Cc2ccc(C)cc2)N2CC/C=C\C[C@@H](C2=O)N(C)C(=O)CN(C)C1=O [PP1864],0.0102 µM,B (a compound having 3 or more and less than 10 is denoted as B),A (a compound having 10 or more and less than 20 is denoted as A)
CC[C@H](C)[C@@H]1NC(=O)[C@H](CC(C)C)N(C)C(=O)C[C@@H](C(=O)N(C)C)N(C)C(=O)[C@H](C2CCCC2)N(C)C(=O)C2(CCC2)NC(=O)[C@@H]2C[C@@H](C)CN2C(=O)[C@H](CCc2cc(F)c(C(F)(F)F)c(F)c2)NC(=O)CN(C)C(=O)[C@H](Cc2ccc(C)cc2)N2CC/C=C\C[C@@H](C2=O)N(C)C(=O)CN(C)C1=O [PP1866],0.0111 µM,B (a compound having 3 or more and less than 10 is denoted as B),A (a compound having 10 or more and less than 20 is denoted as A)
CC[C@H](C)[C@@H]1NC(=O)[C@H](CC(C)C)N(C)C(=O)C[C@@H](C(=O)N(C)C)N(C)C(=O)[C@H](C2CCCC2)N(C)C(=O)C2(CCC2)NC(=O)[C@@H]2C[C@@H](C)CN2C(=O)[C@H](CCc2ccc(C(F)(F)F)c(OC)c2)NC(=O)CN(C)C(=O)[C@H](Cc2ccc(C)cc2)N2CC/C=C\C[C@@H](C2=O)N(C)C(=O)CN(C)C1=O [PP1867],0.0478 µM,B (a compound having 3 or more and less than 10 is denoted as B),A (a compound having 10 or more and less than 20 is denoted as A)
